Our source for the IC50 values is US10865191B2, “Heterocyclic compounds useful as modulators of TNF alpha” (BRISTOL-MYERS SQUIBB COMPANY, priority 2015, dated 2020).

Where only a bound is given, the exact number is not on record here.

Sequence of TNFα (P01375 77-233 limits assumed): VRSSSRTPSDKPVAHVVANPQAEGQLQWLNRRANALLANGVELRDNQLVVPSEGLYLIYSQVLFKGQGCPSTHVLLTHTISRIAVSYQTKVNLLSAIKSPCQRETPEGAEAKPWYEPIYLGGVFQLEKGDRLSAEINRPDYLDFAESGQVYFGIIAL

The experiment has as its target TNFα (Homo sapiens, UniProt P01375). The experiment is described as follows: TNF induced HEK-Blue assay (NF-kB-driven secreted alkaline phosphatase reporter). Format: cell-based. To be noted: TNFα 0.5 ng/mL, HEK-Blue-CD40L cells, 18 h; read-out: TNF induced HEK-Blue assay IC50 value. The essentials: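 HEK-Blue-CD40L cells (NF-kB-driven SEAP reporter), 20,000/well, added after 30 min pre-incubation of compound (0.004–25 μM final) with TNFα 0.5 ng/mL final at 37 °C; 18 h incubation. SEAP read with QUANTI-Blue at 620 nm; IC50 from 4-parameter logistic fit, normalized to unstimulated and stimulated DMSO controls.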
Take `C[C@@H](Nc1c(Cl)cnc2ccccc12)c1cc(-c2cccnc2)ccc1F` [Example 461, (R)-3-chloro-N-(1-(2-fluoro-5-(pyridin-3-yl)phenyl)ethyl)quinolin-4-amine]: the IC50 (usually the point on the concentration scale where inhibition reaches its midpoint) was less than 1 µM.

Turning to `COc1cccc([C@@H](C)Nc2c(Cl)cnc3ccccc23)c1` [Example 462, (R)-3-chloro-N-(1-(3-methoxyphenyl)ethyl)quinolin-4-amine], the IC50 lay within 10 to 25 µM.

Consider `C[C@@H](Nc1c(Cl)cnc2ccccc12)c1ccccc1C(F)(F)F` [Example 463, 3-chloro-N-(1-(2-(trifluoromethyl)phenyl)ethyl)quinolin-4-amine], for which the IC50 is 10 to 25 µM. As to `C[C@@H](Nc1c(Cl)cnc2ccccc12)c1cc(CCCO)ccc1F` [Example 464, (R)-3-(3-(1-((3-chloroquinolin-4-yl)amino)ethyl)-4-fluorophenyl)propan-1-ol], the IC50 lay in the range of 1 to 10 µM.

On to `C[C@@H](Nc1c(Cl)cnc2ccccc12)c1cc(-c2cnn(CC(C)(C)O)c2)ccc1F` [Example 465, (R)-1-(4-(3-(1-((3-chloroquinolin-4-yl)amino)ethyl)-4-fluorophenyl)-1H-pyrazol-1-yl)-2-methylpropan-2-ol], for which the IC50 fell in the range of 1 to 10 µM. Regarding `C[C@@H](Nc1c(Cl)cnc2ccccc12)c1cc(-c2cnn(Cc3ccccc3)c2)ccc1F` [Example 466, (R)—N-(1-(5-(1-benzyl-1H-pyrazol-4-yl)-2-fluorophenyl)ethyl)-3-chloroquinolin-4-amine], the IC50 lay within 10 to 25 µM.

Consider `C[C@@H](Nc1c(Cl)cnc2ccccc12)c1cc(-c2cnc(N3CCOCC3)nc2)ccc1F` [Example 467, (R)-3-chloro-N-(1-(2-fluoro-5-(2-morpholinopyrimidin-5-yl)phenyl)ethyl)quinolin-4-amine], for which the 50% inhibitory concentration (IC50) lay within 1 to 10 µM.

In the case of `C[C@@H](Nc1c(Cl)cnc2ccccc12)c1cc(-c2ccncc2)ccc1F` [Example 468, (R)-3-chloro-N-(1-(2-fluoro-5-(pyridin-4-yl)phenyl)ethyl)quinolin-4-amine], the IC50 lay within 1 to 10 µM.

For `C[C@@H](Nc1c(Cl)cnc2ccccc12)c1cc(-c2cnc(C(C)(C)O)nc2)ccc1F` [Example 469, (R)-2-(5-(3-(1-((3-chloroquinolin-4-yl)amino)ethyl)-4-fluorophenyl)pyrimidin-2-yl)propan-2-ol], the IC50 lay within 1 to 10 µM.

Take `Cc1ccc(Br)cc1Nc1c(Cl)c(C)nc2ccccc12` [Example 470, N-(5-bromo-2-methylphenyl)-3-chloro-2-methylquinolin-4-amine]: the IC50 fell in the range of 10 to 25 µM. In the case of `C[C@@H](Nc1c(Cl)cnc2ccccc12)c1cc(-c2cnn(C(F)F)c2)ccc1F` [Example 471, (R)-3-chloro-N-(1-(5-(1-(difluoromethyl)-1H-pyrazol-4-yl)-2-fluorophenyl)ethyl) quinolin-4-amine], the IC50 lay within 1 to 10 µM. For `C[C@@H](Nc1c(Cl)cnc2ccccc12)c1cc(-c2cn(C)nc2C(F)(F)F)ccc1F` [Example 472, (R)-3-chloro-N-(1-(2-fluoro-5-(1-methyl-3-(trifluoromethyl)-1H-pyrazol-4-yl)phenyl)ethyl)quinolin-4-amine], the IC50 was in the range of 1 to 10 µM.

Regarding `CCn1cc(-c2ccc(F)c([C@@H](C)Nc3c(Cl)cnc4ccccc34)c2)cn1` [Example 473, (R)-3-chloro-N-(1-(5-(1-ethyl-1H-pyrazol-4-yl)-2-fluorophenyl)ethyl)quinolin-4-amine], the half-inhibitory concentration (IC50) was less than 1 µM. With `Cc1c(-c2ccc(F)c([C@@H](C)Nc3c(Cl)cnc4ccccc34)c2)cnn1C` [Example 474, (R)-3-chloro-N-(1-(5-(1,5-dimethyl-1H-pyrazol-4-yl)-2-fluorophenyl)ethyl)quinolin-4-amine], the IC50 was less than 1 µM. For `Cc1ncccc1-c1ccc(F)c([C@@H](C)Nc2c(Cl)cnc3ccccc23)c1` [Example 475, (R)-3-chloro-N-(1-(2-fluoro-5-(2-methylpyridin-3-yl)phenyl)ethyl)quinolin-4-amine], the IC50 was 1 to 10 µM. Turning to `COc1ccc(F)c([C@H](C)Nc2c(Cl)cnc3ccccc23)c1` [Example 476, (S)-3-chloro-N-(1-(2-fluoro-5-methoxyphenyl)ethyl)quinolin-4-amine], the 50% inhibitory concentration (IC50) lay within 1 to 10 µM. On to `Cc1cc(-c2ccc(F)c([C@@H](C)Nc3c(Cl)cnc4ccccc34)c2)cnn1` [Example 477, (R)-3-chloro-N-(1-(2-fluoro-5-(6-methylpyridazin-4-yl)phenyl)ethyl)quinolin-4-amine], for which the 50% inhibitory concentration (IC50) lay in the range of 1 to 10 µM. Consider `C[C@@H](Nc1c(Cl)cnc2ccccc12)c1cc(-c2ccc(N)nc2)ccc1F` [Example 478, (R)—N-(1-(5-(6-aminopyridin-3-yl)-2-fluorophenyl)ethyl)-3-chloroquinolin-4-amine], for which the IC50 was less than 1 µM. Take `C[C@@H](Nc1c(Cl)cnc2ccccc12)c1cc(-c2cncnc2)ccc1F` [Example 479, (R)-3-chloro-N-(1-(2-fluoro-5-(pyrimidin-5-yl)phenyl)ethyl)quinolin-4-amine]: the IC50 was less than 1 µM.

Turning to `C[C@@H](Nc1c(Cl)cnc2ccccc12)c1cc(-c2cnn(CCN3CCOCC3)c2)ccc1F` [Example 480, (R)-3-chloro-N-(1-(2-fluoro-5-(1-(2-morpholinoethyl)-1H-pyrazol-4-yl)phenyl)ethyl)quinolin-4-amine], the half-inhibitory concentration (IC50) is 10 to 25 µM.

Regarding `C[C@@H](Nc1c(Cl)cnc2ccccc12)c1cc(-c2cnc(N)nc2)ccc1F` [Example 481, (R)—N-(1-(5-(2-aminopyrimidin-5-yl)-2-fluorophenyl)ethyl)-3-chloroquinolin-4-amine], the IC50 was less than 1 µM. Then `CC(=O)NC(CO)c1ccc(-c2ccc3ncc(Cl)c(N[C@H](C)c4ccccc4F)c3c2)cc1` (stereo partly drawn) [Example 482, N-(1-(4-(3-chloro-4-(((R)-1-(2-fluorophenyl)ethyl)amino)quinolin-6-yl)phenyl)-2-hydroxyethyl)acetamide], with 10 to 25 µM; and `C[C@@H](Nc1c(Cl)cnc2ccc(-c3ccc(C4(NC(N)=O)CCC4)cc3)cc12)c1ccccc1F` [Example 483, (R)-1-(1-(4-(3-chloro-4-((1-(2-fluorophenyl)ethyl)amino)quinolin-6-yl)phenyl)cyclobutyl)urea], with 1 to 10 µM. For the molecule `Cc1ccc(F)c(C(C)Nc2c(Cl)cnc3ccc(-c4cnc(N5CCNC(=O)C5)nc4)cc23)n1` (centres unmarked) [Example 484, 4-(5-(3-chloro-4-((1-(3-fluoro-6-methylpyridin-2-yl)ethyl)amino)quinolin-6-yl)pyrimidin-2-yl)piperazin-2-one], the IC50 is less than 1 µM. As for `CC(C)(O)c1ncc(-c2nc3c(N[C@H](c4cc(C(=O)O)ccc4F)C(F)F)c(Cl)cnc3cc2F)cn1` [Example 485, (R)-3-(1-((3-chloro-7-fluoro-6-(2-(2-hydroxypropan-2-yl)pyrimidin-5-yl)-1,5-naphthyridin-4-yl)amino)-2,2-difluoroethyl)-4-fluorobenzoic acid], the IC50 lay within 1 to 10 µM. In the case of `CC(C)(O)c1ncc(-c2nc3c(N[C@H](c4cc(CO)ccc4F)C(F)F)c(Cl)cnc3cc2F)cn1` [Example 486, (R)-2-(5-(7-chloro-8-((2,2-difluoro-1-(2-fluoro-5-(hydroxymethyl)phenyl)ethyl)amino)-3-fluoro-1,5-naphthyridin-2-yl)pyrimidin-2-yl)propan-2-ol], the half-inhibitory concentration (IC50) is less than 1 µM.
